Laboratory results taken from US8871681B2, “Herbicidal compositions comprising 4-amino-3-chloro-5-fluoro-6-(4-chloro-2-fluoro-3-methoxyphenyl) pyridine-2-carboxylic acid or a derivative thereof and certain sulfonylureas” (Dow AgroSciences LLC, priority 2012, dated 2014).
Where two headings read alike, the source gives them in different places.

Tests used:
Test in all cases: Postemergence foliar-applied weed control, direct seeded rice, greenhouse (Example I)
[1] = test system: LEFCH (Leptochloa chinensis, Chinese sprangletop); type: in vivo, Leptochloa chinensis (L.) Nees; details: for pest or weed control at 4.38 g/ha: 4.38 gae/ha; for pest or weed control at 8.75 g/ha: 8.75 gae/ha
How it was run: (§1)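 Greenhouse-grown plants in loam/sandy loam–grit soil (14 h photoperiod, ~29/26 °C) were sprayed postemergence at the first to fourth true leaf stage. Compound A (acid equivalent basis) and ALS-inhibiting sulfonylureas (active ingredient basis) were applied alone and in combination in 1.25% (v/v) crop oil concentrate at 187 L/ha by track sprayer; controls received solvent blank.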

[2] = test system: BRAPP (Brachiaria platyphylla, broadleaf signalgrass); type: in vivo, Brachiaria platyphylla (Griseb.) Nash; details: Urochloa platyphylla, post-emergence
How it was run: as §1

[3] = test system: ECHCG (Echinochloa crusgalli, barnyardgrass); type: in vivo, Echinochloa crusgalli (L.) Beauv.
Text: Seeds or nutlets of the desired test plant species were planted in a soil matrix prepared by mixing a loam or sandy loam soil (e.g., 28.6 percent silt, 18.8 percent clay, and 52.6 percent sand, with a pH of about 5.8 and an organic matter content of about 1.8 percent) and calcareous grit in an 80 to 20 ratio. The soil matrix was contained in plastic pots with a volume of 1 quart and a surface area of 83.6 square centimeters (cm^2). When required to ensure good germination and healthy plants, a fungicide treatment and/or other chemical or physical treatment was applied. The plants were grown for 8-22 days in a greenhouse with an approximate 14 h photoperiod which was maintained at about 29° C. during the day and 26° C. during the night. Nutrients (Peters Excel® 15-5-15 5-Ca 2-Mg and iron chelate) were applied in the irrigation solution as needed and water was added on a regular basis. Supplemental lighting was provided with overhead metal halide 1000-Watt lamps as necessary. The plants were employed for testing when they reached the first through fourth true leaf stage.
Treatments consisted of the acid or esters of 4-amino-3-chloro-5-fluoro-6-(4-chloro-2-fluoro-3-methoxy-phenyl)pyridine-2-carboxylic acid (Compound A), each formulated as an SC, and various herbicidal components alone and in combination. Forms of compound A were applied on an acid equivalent basis.
Other herbicidal components were applied on an active ingredient basis and included acetolactate synthase (ALS)-inhibiting herbicides (sulfonylurea chemical class) azimsulfuron formulated as Gulliver®, bensulfuron-methyl formulated as Londax® 60DF, cyclosulfamuron (technical material), ethoxysulfuron formulated as Sunrice® 15 WDG, flazasulfuron formulated as Katana®, flucetosulfuron formulated as Sukedachi® 1KG G, foramsulfuron formulated as Option®, imazosulfuron formulated as Brazzos® WG, iodosulfuron-methyl-sodium formulated as Hussar®, metsulfuron-methyl formulated as Lorate®, nicosulfuron formulated as Accent®, orthosulfamuron formulated as Strada® WG, primisulfuron-methyl (technical material), propyrisulfuron formulated as Zeta One®, rimsulfuron formulated as Matrix® WG, sulfometuron-methyl formulated as Oust®, and trifloxysulfuron-sodium formulated as Monument® 75WG.
Treatment requirements were calculated based upon the rates being tested, the concentration of active ingredient or acid equivalent in the formulation, and a 12 mL application volume at a rate of 187 L/ha.
For treatments comprised of formulated compounds, measured amounts of compounds were placed individually in 25 mL glass vials and diluted in a volume of 1.25% (v/v) Agri-Dex® crop oil concentrated to obtain 12× stock solutions. […] Application solutions were prepared by adding an appropriate amount of each stock solution (e.g., 1 mL) and diluted to the appropriate final concentrations with the addition of 10 mL of an aqueous mixture of 1.25% (v/v) crop oil concentrate so that the final spray solutions contained 1.25+/−0.05% (v/v) Agrcrop oil concentrate.
For treatments comprised of formulated and technical compounds, weighed amounts of the technical materials were placed individually in 25 mL glass vials and dissolved in a volume of 97:3 v/v acetone/DMSO to obtain 12× stock solutions, and measured amounts of the formulated compounds were placed individually in 25 mL glass vials and diluted in a volume of 1.25% (v/v) crop oil concentrate to obtain 12× stock solutions. […] Application solutions were prepared by adding an appropriate amount of each stock solution (e.g., 1 mL) and diluted to the appropriate final concentrations with the addition of an appropriate amount of an aqueous mixture of 1.5% (v/v) crop oil concentrate so that the final spray solutions contained 1.25% (v/v) crop oil concentrate. […]

[4] = Dinebra chinensis, post-emergence, 480 h, 20 DAA, read-out: Visual Weed Control (%) Obs

SMILES: COc1c(Cl)ccc(-c2nc(C(=O)O)c(Cl)c(N)c2F)c1F [Compound A Acid, 4-amino-3-chloro-5-fluoro-6-(4-chloro-2-fluoro-3-methoxy-phenyl)pyridine-2-carboxylic acid]
- pest or weed control at 4.38 g/ha [1, 4]: 0%
- pest or weed control at 5.3 g/ha ([1]; Dinebra chinensis, post-emergence, 480 h, 20 DAA, 5.3 gae/ha, read-out: Visual Weed Control (%) Obs): 0%
- pest or weed control at 8.75 g/ha [1, 4]: 0%
- pest or weed control at 10.6 g/ha ([1]; Dinebra chinensis, post-emergence, 480 h, 20 DAA, 10.6 gae/ha, read-out: Visual Weed Control (%) Obs): 10%
- pest or weed control at 17.5 g/ha ([1]; Dinebra chinensis, post-emergence, 480 h, 20 DAA, 17.5 gae/ha, read-out: Visual Weed Control (%) Obs): 10%
- pest or weed control at 19.4 g/ha ([1]; Dinebra chinensis, post-emergence, 480 h, 20 DAA, 19.4 gae/ha, read-out: Visual Weed Control (%) Obs): 5%
- pest or weed control at 21.2 g/ha ([1]; Dinebra chinensis, post-emergence, 480 h, 20 DAA, 21.2 gae/ha, read-out: Visual Weed Control (%) Obs): 15%
- pest or weed control at 8.75 g/ha ([1]; Dinebra chinensis, post-emergence, 504 h, 21 DAA, read-out: Visual Weed Control (%) Obs): 40%
- pest or weed control at 17.5 g/ha ([1]; Dinebra chinensis, post-emergence, 504 h, 21 DAA, 17.5 gae/ha, read-out: Visual Weed Control (%) Obs): 30%
- pest or weed control at 4.38 g/ha ([2]; 480 h, 20 DAA, 4.38 gae/ha, read-out: Visual Weed Control (%) Obs): 10%
- pest or weed control at 4.38 g/ha ([2]; 504 h, 21 DAA, 4.38 gae/ha, read-out: Visual Weed Control (%) Obs): 40%
- pest or weed control at 4.38 g/ha ([2]; 504 h, 21 DAA, 4.38 gae/ha, second series, read-out: Visual Weed Control (%) Obs): 50%
- Visual Weed Control (%) Obs ([3]; 21 DAA, 4.38 gae/ha): 15%
- Visual Weed Control (%) Obs ([3]; 21 DAA, 8.75 gae/ha): 50%

SMILES: COc1c(Cl)ccc(-c2nc(C(=O)OCc3ccccc3)c(Cl)c(N)c2F)c1F [Compound A Benzyl Ester]
- Visual Weed Control Obs ([1]; 22 DAA, 8 gae/ha): 0%
- pest or weed control at 8.75 g/ha ([1]; Dinebra chinensis, post-emergence, 480 h, read-out: Visual Weed Control (%) Obs, 20 DAA): 20%
- pest or weed control at 17.5 g/ha ([1]; Dinebra chinensis, post-emergence, 480 h, read-out: Visual Weed Control (%) Obs, 20 DAA, 17.5 gae/ha): 40%
- pest or weed control at 4.38 g/ha ([1]; Dinebra chinensis, post-emergence, 504 h, read-out: Visual Weed Control (%) Obs, 21 DAA): 0%
- pest or weed control at 8 g/ha ([1]; Dinebra chinensis, post-emergence, 504 h, read-out: Visual Weed Control (%) Obs, 21 DAA, 8 gae/ha): 20%
- pest or weed control at 8 g/ha ([1]; Dinebra chinensis, post-emergence, 528 h, read-out: Visual Weed Control (%) Obs, 22 DAA, 8 gae/ha): 0%
- pest or weed control at 16 g/ha ([1]; Dinebra chinensis, post-emergence, 528 h, read-out: Visual Weed Control (%) Obs, 22 DAA, 16 gae/ha): 20%
- pest or weed control at 32 g/ha ([1]; Dinebra chinensis, post-emergence, 528 h, read-out: Visual Weed Control (%) Obs, 22 DAA, 32 gae/ha): 15%
- pest or weed control at 8.75 g/ha ([1]; Dinebra chinensis, post-emergence, 576 h, read-out: Visual Weed Control (%) Obs, 24 DAA): 0%
- pest or weed control at 17.5 g/ha ([1]; Dinebra chinensis, post-emergence, 576 h, read-out: Visual Weed Control (%) Obs, 24 DAA, 17.5 gae/ha): 10%
- pest or weed control at 4.38 g/ha ([2]; 480 h, read-out: Visual Weed Control (%) Obs, 20 DAA, 4.38 gae/ha): 60%
- pest or weed control at 8.75 g/ha ([2]; 480 h, read-out: Visual Weed Control (%) Obs, 20 DAA, 8.75 gae/ha): 75%
- pest or weed control at 17.5 g/ha ([2]; 480 h, read-out: Visual Weed Control (%) Obs, 20 DAA, 17.5 gae/ha): 85%
- pest or weed control at 4.38 g/ha ([2]; 504 h, read-out: Visual Weed Control (%) Obs, 21 DAA, 4.38 gae/ha): 50%
- pest or weed control at 4.38 g/ha ([2]; 504 h, read-out: Visual Weed Control (%) Obs, 21 DAA, 4.38 gae/ha, second series): 50%
- pest or weed control at 8.75 g/ha ([2]; 504 h, read-out: Visual Weed Control (%) Obs, 21 DAA, 8.75 gae/ha): 70%
- pest or weed control at 8.75 g/ha ([2]; 504 h, read-out: Visual Weed Control (%) Obs, 21 DAA, 8.75 gae/ha, second series): 80%
- pest or weed control at 17.5 g/ha ([2]; 504 h, read-out: Visual Weed Control (%) Obs, 21 DAA, 17.5 gae/ha): 80%
- pest or weed control at 8 g/ha ([2]; 528 h, read-out: Visual Weed Control (%) Obs, 22 DAA, 8 gae/ha): 50%
- pest or weed control at 16 g/ha ([2]; 528 h, read-out: Visual Weed Control (%) Obs, 22 DAA, 16 gae/ha): 90%
- pest or weed control at 32 g/ha ([2]; 528 h, read-out: Visual Weed Control (%) Obs, 22 DAA, 32 gae/ha): 85%
- Visual Weed Control (%) Obs ([3]; 21 DAA, 4.38 gae/ha): 10%

SMILES: COC(=O)c1ccccc1CS(=O)(=O)NC(=O)Nc1nc(OC)cc(OC)n1 [Bensulfuron-methyl, methyl 2-[[[[[(4,6-dimethoxy-2-pyrimidinyl)amino]carbonyl]amino]sulfonyl]methyl]benzoate, reference compound]
- pest or weed control at 70 g/ha ([1]; Dinebra chinensis, post-emergence, 480 h, 20 DAA, 70 gai/ha, read-out: Visual Weed Control (%) Obs): 5%
- pest or weed control at 17.5 g/ha ([1]; Dinebra chinensis, post-emergence, 504 h, 21 DAA, 17.5 gai/ha, read-out: Visual Weed Control (%) Obs): 10%
- pest or weed control at 35 g/ha ([1]; Dinebra chinensis, post-emergence, 504 h, 21 DAA, 35 gai/ha, read-out: Visual Weed Control (%) Obs): 10%
- pest or weed control at 4.38 g/ha ([2]; 504 h, 21 DAA, 4.38 gai/ha, read-out: Visual Weed Control (%) Obs): 0%
- pest or weed control at 8.75 g/ha ([2]; 504 h, 21 DAA, 8.75 gai/ha, read-out: Visual Weed Control (%) Obs): 0%
- pest or weed control at 17.5 g/ha ([2]; 504 h, 21 DAA, 17.5 gai/ha, read-out: Visual Weed Control (%) Obs): 0%
- pest or weed control at 17.5 g/ha ([2]; 504 h, 21 DAA, 17.5 gai/ha, second series, read-out: Visual Weed Control (%) Obs): 0%
- pest or weed control at 35 g/ha ([2]; 504 h, 21 DAA, 35 gai/ha, second series, read-out: Visual Weed Control (%) Obs): 0%
- Visual Weed Control (%) Obs ([3]; 21 DAA, 17.5 gai/ha): 0%
- Visual Weed Control (%) Obs ([3]; 21 DAA, 35 gai/ha): 0%
- Visual Weed Control (%) Obs ([3]; 27 DAA, 4.38 gai/ha): 0%
- Visual Weed Control (%) Obs ([3]; 27 DAA, 8.75 gai/ha): 0%
- Visual Weed Control (%) Obs ([3]; 27 DAA, 17.5 gai/ha): 0%
